Patent EP0738149B1 (priority 1994, dated 1995)
Read-outs that look alike come from different tables or passages of the source.

What was measured:
rats [1] = assay: Maximal electroshock (MES) model in rats, p.o.;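 note: rat MES model gauging antiepileptic efficacy versus generalized and partial seizures after oral dosing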; assay type: in vivo; conditions: Rattus norvegicus, po, Table 15
mice [2] = assay: Maximal electroshock (MES) model in mice, i.p.;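 note: Electroshock-induced convulsion model serving to demonstrate antiepileptic efficacy against generalized and partial seizures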; assay type: in vivo; conditions: Mus musculus, ip, Table 15
rats [3] = conditions: Rattus norvegicus, po, read-out: RATS scMet ED50
mice [4] = conditions: Mus musculus, ip
[5] = Neurotoxicity in rats (positional sense test and gait stance test), p.o.; conditions: rat, in vivo, po
Protocol: (§1) Neurotoxicity of the claimed agents was also assessed in mice (i.p. administration) by the rotorod ataxia test and/or in rats (p.o. administration) by positional sense test and gait stance test. […] The term quantitating the neurotoxicity is the medial neurological toxic dose (TD50), was determined in the above tests.

rats [6] = assay: as above; conditions: rats, p.o.; Table 16
Protocol: as §1

in vivo = conditions: mouse, in vivo, ip, MICE TD50
Protocol: as §1

mice [7] = assay: in vivo; conditions: mouse, in vivo, ip
Protocol: as §1

rats [8] = assay: Electrically kindled rat model of epilepsy, p.o.; assay type: in vivo; conditions: po, read-out: ED50 (prevented seizures)
Text: The rat electrical kindling model of epilepsy has been known to show efficacy of antiepileptic agents against complex partial seizures that evolve into generalized motor seizures. In these tests, rats were electrically stimulated via corneal electrodes twice daily for approximately 5 days and then once daily for an additional 10 days. Once the seizure criteria, as described by R.J. Racine, et al., Electroenceph. Clin. Neurophysiol. 32: 281-294 (1972), were met, the test substance was administered p.o. to rats, and the rat electrically stimulated, and observed for the presence or absence of a seizure.

[9] = read-out: MICE scMet ED50, mice, i.p., Table 16

Row | Structure (SMILES) | ED50 (rats [1]; read-out: RATS MES 50, rats, p.o.) | ED50 (mice [2]) | ED50 (rats [3]) | ED50 (mice [4]; read-out: MICE scMet ED50) | ED50 (rats [1]; rats, p.o., read-out: RATS MES 50) | TD50 [5] | RATS TD50 (rats [6]) | TD50 (in vivo) | MICE TD50 (mice [7]) | ED50 (mice [4]; [9]) | ED50 (rats [8])
1 | C#CCN[C@H]1CCc2ccccc21.Cl [G, (S)-N-propargyl-1-aminoindan HCl salt] | 57 mg/kg | 57 mg/kg | > 250 mg/kg | > 250 mg/kg |  |  |  |  |  |  | 
2 | CC(=O)N[C@@H]1CCc2ccc(F)cc21 [Example 23, (R)-6-Fluoro-N-acetyl-1-aminoindan] |  | 65 mg/kg | > 250 mg/kg |  | 25 mg/kg | > 500 mg/kg | >500 mg/kg | 155 mg/kg | 155 mg/kg | 155 mg/kg | 
3 | CC(=O)NC1CCc2ccccc21 (racemic) [Example 17, (rac)-N-Acetyl-1-aminoindan] |  | 33 mg/kg |  |  |  |  |  | 90 mg/kg | 90 mg/kg | 71.5 mg/kg | < 75 mg/kg
